Positions count from the first letter of the chain named. Numbers in names are those of the source. Where “and” joins values, the source holds several entries; their conditions need not be identical. Equal entries are not always repeated. Where two headings read alike, the source gives them in different places.
Experiments:
GltPh-G396S/R397C = molecular target: T1, GltPh-G396S/R397C (Pyrococcus horikoshii, UniProt O59010, G396S/R397C); test: biochemical; assay type: biochemical; conditions: for Reduction of L-[3H]serine transport by unlabelled competitor (in words): GltPh-R397C/G396S, 10 µM L-[3H]serine, 100-fold excess unlabelled amino acid
T1 construct: hexa-His (N, cleaved yes); made in house; host or cells: Escherichia coli Top10 (pBAD)
T1 sequence (O59010 whole entry G396S/R397C): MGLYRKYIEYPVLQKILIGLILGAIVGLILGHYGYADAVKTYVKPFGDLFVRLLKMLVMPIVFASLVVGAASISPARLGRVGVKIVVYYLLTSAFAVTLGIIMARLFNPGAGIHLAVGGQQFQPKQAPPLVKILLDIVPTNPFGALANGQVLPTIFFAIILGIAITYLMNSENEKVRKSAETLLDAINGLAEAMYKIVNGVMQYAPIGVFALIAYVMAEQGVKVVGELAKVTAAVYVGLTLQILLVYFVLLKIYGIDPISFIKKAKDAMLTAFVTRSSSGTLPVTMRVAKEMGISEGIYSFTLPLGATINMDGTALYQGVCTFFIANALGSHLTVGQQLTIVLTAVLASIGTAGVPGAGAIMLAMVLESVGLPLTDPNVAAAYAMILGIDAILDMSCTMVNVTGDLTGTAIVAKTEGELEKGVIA
Method: (§1) Mutant and wild-type GltPh with an amino-terminal hexa-His tag were expressed in Escherichia coli Top10 cells (Invitrogen), which were grown in Luria broth medium at 37 °C. Ampicillin was added to a final concentration of 100 μg per ml. To induce expression of GltPh, 0.1% L-arabinose was added when cells reached an optical density of 0.6 at 660 nm, and cells were harvested 4 h post induction. Membranes were isolated, and then solubilised with n-dodecyl-β-D-maltopyranoside (C12M, Anatrace). Histidine containing proteins were purified using Ni^2+−nitrilotriacetic acid resin (Qiagen). The histidine tag was subsequently removed from GltPh by digestion with thrombin (10 U per mg protein) and the protein further purified on a Superdex 200 size exclusion column, where the detergent was exchanged to n-decyl-β-D-maltopyranoside (C10M, Anatrace).
(§2) Pure protein was reconstituted into liposomes composed of 75% E. coli Polar Lipid Extract and 25% 1-palmitoyl-2-oleoyl-sn-glycero-3 ^−phopshocholine (Avanti Polar Lipids). Lipids were mixed, dried under nitrogen and resuspended in internal buffer (100 mM KCl, 20 mM HEPES-Tris pH 7.5) using brief sonication (Laboratory Supplies Co.). The lipid suspension was frozen in liquid nitrogen and thawed at room temperature several times. Liposomes were formed by extrusion through 400 nm polycarbonate membranes (Avanti Polar Lipids) and were treated with Triton X-100 at a 0.5:1 (w/w) detergent to lipid ratio prior to the addition of protein at 0.25 μg protein per mg lipid. The protein/lipid mixture was left at room temperature for 30 min before detergent was removed using SM2 Biobeads (BioRad). The mixture was then incubated with gentle agitation, with four consecutive batches of Biobeads (80 mg per ml). Proteoliposomes were concentrated by centrifugation at 150,000 g for 30 min, resuspended at 100 mg lipid per ml and either used immediately or flash-frozen in liquid nitrogen and stored at −80 °C.
(§3) Mutant and wild-type GltPh-mediated transport of radiolabelled substrate was assayed by diluting proteoliposomes (100 mg lipid per ml) 133-fold into uptake buffer (100 mM NaCl, 20 mM HEPES-Tris pH 7.5, 1 μM valinomycin, 100 nM–1 µM L-[^3H]substrate) pre-warmed to 30 °C. At each time point, a 200 µl aliquot was removed and diluted 10-fold into ice-cold quench buffer (100 mM LiCl, 20 mM HEPES-Tris pH 7.5), followed by immediate filtration over nitrocellulose filters (0.22 μm pore size, Millipore). The filters were washed with ice-cold quench buffer and assayed for radioactivity using a Trilux beta counter (PerkinElmer). To establish substrate concentration–response curves, extraliposomal L-[^3H]substrate was varied between 500 nM and 100 µM, maintaining NaCl concentrations at 300 mM. For inhibitor concentration–response curves, for wild-type GltPh 100 nM L-[^3H]aspartate, and for mutant GltPh 1 µM L-[^3H]serine, was co-applied with varying inhibitor concentrations. Background levels of uptake were measured by diluting proteoliposomes into internal buffer (100 mM KCl, 20 mM HEPES-Tris pH 7.5) containing 1 µM of valinomycin and the indicated concentrations of L-[^3H]substrate.

GltPh-R397C [1] = molecular target: T2, GltPh-R397C (Pyrococcus horikoshii, UniProt O59010, R397C); assay type: biochemical; conditions: 100 nM L-[3H]aspartate, 1 µM L-[3H]glutamine, 10 µM 35S-cysteine ± 1 mM DTT, Na+ gradient
T2 construct: hexa-His (N, cleaved yes); made in house; host or cells: Escherichia coli Top10 (pBAD)
T2 sequence (O59010 whole entry R397C): as the sequence (O59010 whole entry G396S/R397C) above, with S396G counted along it

wild-type GltPh [2] = molecular target: T3, wild-type GltPh (Pyrococcus horikoshii, UniProt O59010); test: Proteoliposome transport assay, wild-type GltPh; assay type: biochemical
T3 construct: hexa-His (N, cleaved yes); made in house; host or cells: Escherichia coli Top10 (pBAD)
T3 sequence (O59010 1-425): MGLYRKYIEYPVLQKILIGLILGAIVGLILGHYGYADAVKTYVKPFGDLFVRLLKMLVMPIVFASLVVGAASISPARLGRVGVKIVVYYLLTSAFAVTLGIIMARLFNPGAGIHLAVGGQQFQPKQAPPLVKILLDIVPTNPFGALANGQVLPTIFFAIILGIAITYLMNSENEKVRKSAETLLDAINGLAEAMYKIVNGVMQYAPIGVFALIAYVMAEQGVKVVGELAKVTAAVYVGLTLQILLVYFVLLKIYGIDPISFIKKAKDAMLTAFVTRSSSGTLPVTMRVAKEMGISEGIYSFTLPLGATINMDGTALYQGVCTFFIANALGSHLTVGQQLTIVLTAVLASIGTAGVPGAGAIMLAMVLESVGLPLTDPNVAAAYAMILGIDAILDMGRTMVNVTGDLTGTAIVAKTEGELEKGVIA
Method: as §1, §2, §3

GltPh-R397C [3] = molecular target: T2, GltPh-R397C; test: biochemical
Method: as §1, §2, §3
Supplementary Figure 6. GltPh‐R397C, ASCT1 and ASCT2 are functional cysteine transporters. (a) Purified GltPh‐R397C was reconstituted into liposomes and 10µM 35S‐cysteine transport was measured over 10 minutes alone or in the presence of 1 mM dithiothreitol (DTT). Background levels of uptake were measured by diluting proteoliposomes into internal buffer (100 mM KCl, 20 mM HEPES‐Tris pH 7.5) containing 1 µM of valinomycin and the 10µM 35S‐cysteine. […]
(c) Neutral amino acid exchange in GltPh‐R397C. Counterflow experiments in which Na+ and amino acid loaded liposomes were used to detect the transport of a range of unlabelled neutral amino acids by exchanging with external 3H‐serine. Counterflow assays were performed using liposomes containing 200mM NaCl, 20 mM HEPES/Tris pH 7.5, and 1 mM of unlabelled amino acid as indicated. […]

glutamate transporters = system: glutamate transporters; set-up: method as in PMID 9463476; conditions: quoted in discussion; cited from earlier work
GltPh-R397C [4] = molecular target: T2, GltPh-R397C; test: biochemical; assay type: binding
Method: Fluorescence-based binding assays were performed by titrating purified protein (50 μg per ml) in 20 mM HEPES/Tris, pH 7.4, 200 mM choline chloride, 0.4 mM n-dodecyl^−β-D-maltopyranoside, 200 nM styryl fluorescent dye RH421 (Invitrogen, Inc., Grand Island, NY) with NaCl, L-ser, L-cys or benzylcysteine at 25 °C[51]. The RH421 dye was excited at 532 nm, and the fluorescence was collected at 628 nm using a QuantaMaster (Photon International Technology, Inc., Edison, NJ). Fluorescence emissions were measured after at least 10 min equilibration to ensure a stabilised signal. The data were analysed using GraphPad Prism version 6.0 for Mac (GraphPad Software, La Jolla California USA). Fractional fluorescence changes were normalised to maximal fluorescence changes, then plotted as a function of ligand concentration and fitted to the Hill equation. All the experiments were performed at least in triplicate.
Analysis of ligand binding data. The voltage sensitive amphipathic dye RH421 reports on Na+ binding to purified GltPh protein in detergent3. RH421 was used to follow Na+ binding to GltPh‐R397C protein either alone or in reactions coupled to binding of amino acids. […]
Coupled ions and amino acid binding was probed by titrating amino acids to the GltPh‐R397C protein in the presence of 10 – 100 mM Na+ ions. The obtained isotherms were analyzed to estimate an apparent number of Na+ ions coupled to binding of the amino acids.
Raw data were first normalized by the initial fluorescence of RH421 and plotted as fraction of fluorescence change (Supplementary […]
total amount of dye and detergent in the assay buffer.
To take into account significant amino acid‐independent Na+ binding, the sets of binding isotherms obtained at variable Na+ concentrations were fitted globally to a simplified binding equation: […]
KD,a is the combined dissociation constant for coupled Na+ and ligand binding and n is the apparent number of coupled ions. Fraction of the protein bound to either Na+ ions alone or to the ions and the […]
Fraction of the protein already bound to Na+ ions before ligand addition is: […]
Fractional fluorescence change Y is fitted to an equation: […]
where Y0 and ∆Y are, respectively, baseline and the signal difference between fully bound and apo […]
KD,a and n were fitted globally for each ligand. Y0 and ∆Y were adjusted for each isotherm independently. […]
individual isotherm to a standard Hill equation, plotted the apparent dissociation constants as functions of Na+ concentrations and compared the values to those predicted using the parameters from the global fits (Supplementary Figure 8).

wild-type GltPh [5] = molecular target: T3, wild-type GltPh; conditions: published values, cited from earlier work
ASCTs = system: ASCTs; set-up: method as in PMID 9463476; conditions: quoted in discussion; cited from earlier work
[6] = molecular target: the molecule itself; test: crystal structure; hanging-drop vapour diffusion at 4 °C, protein ~7 mg per ml in n-decyl-maltopyranoside, 15-21% PEG1000, 0.1 M LiSO4, 0.05 M citric acid, 0.05 M Na2HPO4; space group P61; refined with threefold NCS restraints; with L-aspartate (wild type) or 5 mM L-cysteine, L-serine or benzylcysteine (R397C)
[7] = GltPh-G396S/R397C, 1 µM L-[3H]serine, read-out: IC50 for inhibition of L-[3H]serine transport

N[C@@H](CC(=O)O)C(=O)O [L-aspartate]
Transport of radiolabelled substrate into proteoliposomes (in words) (GltPh-G396S/R397C; GltPh-G396S/R397C, 100 nM L-[3H]aspartate, 1 µM L-[3H]glutamine, Na+ gradient, pH 7.5): does not effectively transport | Transport of radiolabelled substrate into proteoliposomes (in words) (GltPh-R397C [1]): no longer capable of transporting

C[C@H](N)C(=O)O [L-alanine]
Transport of radiolabelled substrate into proteoliposomes (in words) (wild-type GltPh [2]; 1 µM L-[3H]substrate, Na+ gradient, pH 7.5): not transported | EC50 (GltPh-R397C [3]): 14 ± 3 µM | EC50 (GltPh-G396S/R397C): 4 ± 0.2 µM

N[C@H](C(=O)O)[C@H](OCc1ccccc1)C(=O)O [TBOA, L-threo-β-oxybenzylaspartic acid]
IC50 (wild-type GltPh [2]; 100 nM L-[3H]aspartate, read-out: IC50 for inhibition of L-[3H]aspartate transport): 2 ± 1 µM | IC50 for inhibition of L-[3H]serine transport (GltPh-R397C [3]; GltPh-R397C, 1 µM L-[3H]serine): poorly inhibited | IC50 (GltPh-G396S/R397C; [7]): 500 ± 200 µM | Affinity for the glutamate transporters (glutamate transporters): ~ 50 μM

[Na+] [Na+]
Hill coefficient nNa of Na+ binding in the absence of amino acids (GltPh-R397C [4]; GltPh-R397C): 1.2 and 1.2 ± 0.1 | Kd (GltPh-R397C [4]; GltPh-R397C, Hill fit, read-out: KD,Na of Na+ binding in the absence of amino acids): 38000 µM | Kd (wild-type GltPh [5]; ref Reyes et al., 2013, read-out: KD,Na of Na+ binding): 99300 µM | nNa of Na+ binding (wild-type GltPh [5]; ref Reyes et al., 2013): 1.6

CSCC[C@H](N)C(=O)O [L-methionine]
Reduction of L-[3H]serine transport by unlabelled competitor (in words) (GltPh-G396S/R397C): to a similar extent

N[C@@H](COCc1ccccc1)C(=O)O [benzylserine]
IC50 for inhibition of L-[3H]aspartate transport (wild-type GltPh [2]; 100 nM L-[3H]aspartate): ineffective | IC50 (GltPh-R397C [3]; GltPh-R397C, 1 µM L-[3H]serine, read-out: IC50 for inhibition of L-[3H]serine transport): 110 ± 10 µM | IC50 (GltPh-G396S/R397C; [7]): 120 ± 20 µM | Affinity for the ASCTs (ASCTs): ~ 1 mM

CC(C)[C@H](N)C(=O)O [L-valine]
Reduction of L-[3H]serine transport by unlabelled competitor (in words) (GltPh-G396S/R397C): to a similar extent

N[C@@H](CSCc1ccccc1)C(=O)O
IC50 for inhibition of L-[3H]aspartate transport (wild-type GltPh [2]; 100 nM L-[3H]aspartate): ineffective | IC50 for inhibition of L-[3H]serine transport (GltPh-R397C [3]; GltPh-R397C, 1 µM L-[3H]serine): reduced affinity compared with benzylserine | IC50 (GltPh-G396S/R397C): 280 ± 60 µM | Kd (GltPh-R397C [4]): 1000 ± 300 µM | Apparent number of Na+ ions coupled to binding (n) (GltPh-R397C [4]; GltPh-R397C, global fit of isotherms at 10–100 mM Na+, 25 °C): 0.8 ± 0.04 | Affinity for the ASCTs (ASCTs): ~ 1 mM

B1: GltPh-R397C (natural protein, Pyrococcus horikoshii)
chain: MGLYRKYIEYPVLQKILIGLILGAIVGLILGHYGYADAVKTYVKPFGDLFVRLLKMLVMPIVFASLVVGAASISPARLGRVGVKIVVYYLLTSAFAVTLGIIMARLFNPGAGIHLAVGGQQFQPKQAPPLVKILLDIVPTNPFGALANGQVLPTIFFAIILGIAITYLMNSENEKVRKSAETLLDAINGLAEAMYKIVNGVMQYAPIGVFALIAYVMAEQGVKVVGELAKVTAAVYVGLTLQILLVYFVLLKIYGIDPISFIKKAKDAMLTAFVTRSSSGTLPVTMRVAKEMGISEGIYSFTLPLGATINMDGTALYQGVCTFFIANALGSHLTVGQQLTIVLTAVLASIGTAGVPGAGAIMLAMVLESVGLPLTDPNVAAAYAMILGIDAILDMGCTMVNVTGDLTGTAIVAKTEG
notes: GltPh of Pyrococcus horikoshii, wild-type background, with the point mutation R397C; Crystallised with L-cysteine, L-serine or benzylcysteine (5 mM each); source: E. coli Top10, purified (Ni-NTA, thrombin digestion, Superdex 200 SEC in detergent); not shown: His6, N-terminal, cleaved
stoichiometry N [6]: 3

B2: wild-type GltPh, aspartate transporter from Pyrococcus horikoshii (natural protein)
chain: B1 chain with C397R
notes: GltPh, Na+-dependent aspartate transporter of the archaeon Pyrococcus horikoshii; wild-type background (not the seven-histidine mutant CAT-7); Crystallised with L-aspartate and Na+ in n-decyl-maltopyranoside; Three protomers in the asymmetric unit (threefold NCS); also called Wt; source: E. coli Top10, purified (Ni-NTA, thrombin digestion, Superdex 200 SEC in detergent); not shown: His6, …
binding result [6]: binds

From publication PMC5750217 (Nature Communications, 2018)
